# Reference: ChEMBL document CHEMBL1151062, “Synthesis and biological activity of 3-alkyl- and 3-alkenyl-3-dephenyldocetaxels” (Bioorg Med Chem Lett, 1994)
# Key:
# A121 = assay: Cytotoxicity against human A121 ovarian cells; format: functional, cell-based
# MCF7 [1] = assay: Cytotoxicity against adriamycin resistant human breast MCF-7 cancer cell lines; format: functional, cell-based
# MCF7 [2] = assay: Cytotoxicity against human breast MCF-7 cancer cell lines; format: functional, cell-based
# A549 = assay: Cytotoxicity against human A549 non small cell lung cell lines; format: functional, cell-based
# HT-29 = assay: Cytotoxicity against human colon HT-29 cell lines; format: functional, cell-based
# P388 [3] = assay: In vitro cytotoxicity against murine P388 cell lines; format: functional, cell-based; settings: Mus musculus
# P388 [4] = assay: Microtubule disassembly inhibitory activity against murine P388 cell line relative to the activity of paclitaxel; format: functional, Mus musculus
# P388 [5] = assay: In vitro cytotoxicity against doxorubicin resistant P388 cell lines; format: functional, cell-based; settings: Mus musculus
# Mus musculus [6] = assay: In vivo antitumor activity administered iv, at a concentration of 20 mg/kg/day per mouse was determined against B16 melanoma cell lines on days 5,7,9 in B6D2F1 mice; format: functional
# Mus musculus [7] = organism: Mus musculus; assay: Time for median tumor to reach 1000 mg was determined against B16 melanoma cell lines at a concentration of 0.4 mL per mouse on days 5,7,9 in B6D2F1 mice; format: functional
# Mus musculus [8] = organism: Mus musculus; assay: Cell kill against B16 melanoma cell lines at a concentration of 0.4 mL per mouse on days 5,7,9 in B6D2F1 mice; format: functional
# Mus musculus [9] = assay: In vivo antitumor activity administered iv, at a concentration of 12.4 mg/kg/day per mouse was determined against B16 melanoma cell lines on days 5,7,9 in B6D2F1 mice; format: functional
SMILES,IC50 (A121) [nM],IC50 (MCF7 [1]) [nM],IC50 (MCF7 [2]) [nM],IC50 (A549) [nM],IC50 (HT-29) [nM],IC50 (P388 [3]) [nM],Ratio (P388 [4]),IC50 (P388 [5]) [nM],T/C (Mus musculus [6]) [%],Median tumor (Mus musculus [7]) [days],Log cell kill (Mus musculus [8]),T/C (Mus musculus [9]) [%]
C/C=C/[C@H](NC(=O)OC(C)(C)C)[C@@H](O)C(=O)O[C@H]1C[C@@]2(O)[C@@H](OC(=O)c3ccccc3)C3[C@](C)(C(=O)[C@H](OC(C)=O)C(=C1C)C2(C)C)[C@@H](O)C[C@H]1OC[C@@]31OC(C)=O (stereo partly specified),0.9,14,0.51,0.54,0.76,,,,,,,
CC(=O)O[C@H]1C(=O)[C@@]2(C)C([C@H](OC(=O)c3ccccc3)[C@]3(O)C[C@H](OC(=O)[C@H](O)[C@H](CC(C)C)NC(=O)OC(C)(C)C)C(C)=C1C3(C)C)[C@]1(OC(C)=O)CO[C@@H]1C[C@@H]2O (stereo partly specified),3.8,36,4,0.98,3.2,,,,,,,
CC(=O)O[C@@]12CO[C@@H]1C[C@H](O)[C@@]1(C)C(=O)[C@H](O)C3=C(C)[C@@H](OC(=O)[C@H](O)[C@H](/C=C/c4ccccc4)NC(=O)OC(C)(C)C)C[C@@](O)([C@@H](OC(=O)c4ccccc4)C12)C3(C)C (stereo partly specified),,,,,,264,1.45,7490,,,,
CC(=O)O[C@@]12CO[C@@H]1C[C@H](O)[C@@]1(C)C(=O)[C@H](O)C3=C(C)[C@@H](OC(=O)[C@H](O)[C@H](CC(C)C)NC(=O)OC(C)(C)C)C[C@@](O)([C@@H](OC(=O)c4ccccc4)C12)C3(C)C (stereo partly specified),1.9,12,0.55,0.7,0.63,12.2,0.78,1590,5,26.03,1.97,
CC(=O)O[C@@]12CO[C@@H]1C[C@H](O)[C@@]1(C)C(=O)[C@H](O)C3=C(C)[C@@H](OC(=O)[C@H](O)[C@H](CC(C)(C)C)NC(=O)OC(C)(C)C)C[C@@](O)([C@@H](OC(=O)c4ccccc4)C12)C3(C)C (stereo partly specified),,,,,,125,1.45,6880,,,,
CC(=O)O[C@@]12CO[C@@H]1C[C@H](O)[C@@]1(C)C(=O)[C@H](O)C3=C(C)[C@@H](OC(=O)[C@H](O)[C@H](C=C(C)C)NC(=O)OC(C)(C)C)C[C@@](O)([C@@H](OC(=O)c4ccccc4)C12)C3(C)C (stereo partly specified),,,,,,12.8,0.64,2360,,27.54,2.25,8
CC(=O)O[C@H]1C(=O)[C@@]2(C)C([C@H](OC(=O)c3ccccc3)[C@]3(O)C[C@H](OC(=O)[C@H](O)[C@H](C=C(C)C)NC(=O)c4ccccc4)C(C)=C1C3(C)C)[C@]1(OC(C)=O)CO[C@@H]1C[C@@H]2O (stereo partly specified),1.4,113,0.54,0.45,0.96,,,,,,,
CC(=O)O[C@@]12CO[C@@H]1C[C@H](O)[C@@]1(C)C(=O)[C@H](O)C3=C(C)[C@@H](OC(=O)[C@H](O)[C@@H](NC(=O)OC(C)(C)C)c4ccccc4)C[C@@](O)([C@@H](OC(=O)c4ccccc4)[C@H]21)C3(C)C.O.O.O [DOCETAXEL],,,,,,9.9,0.7,1860,,,,
